The subject of one series is BaF3 ETV6-TRKC-G623R. The experiment in a line: BaF3 cell proliferation, CCK-8 assay. The following applies: Mus musculus, BaF3, 72 h, read-out: IC50 (nM ± SD) Solvent Front ETV6-TRKC-G623R. For orientation: Tetrazolium assays rely on reduction of a dye to a coloured formazan, in cell work by metabolically active cells.
The test system of a further series is BaF3 CD74-TRKA. The experiment in a line: BaF3 cell proliferation, CCK-8 assay. The note with it: Mus musculus, BaF3, 72 h, read-out: IC50 (nM ± SD) WT CD74-TRKA.
A further series relates to BaF3 CD74-TRKA-G595R. The experiment in a line: BaF3 cell proliferation, CCK-8 assay. The following applies: Mus musculus, BaF3, 72 h, read-out: IC50 (nM ± SD) Solvent Front CD74-TRKA-G595R.
For another series, the system named is Parental BaF3 (+IL3). Description: BaF3 cell proliferation, CCK-8 assay. The following applies: Mus musculus, BaF3, 72 h, read-out: IC50 (nM ± SD) Parental BaF3 (+IL3).
Series [1] deals with TRKC WT. The experiment in a line: Bio-layer interferometry (BLI) Octet binding assay. On the set-up: species or system Human. The note with it: TRKC-WT and TRKC-G696C. Here is the method:
(§1) Biolayer interferometry (BLI) assays were performed with the Octet K2 machine (ForteBio, Inc., Fremont, CA, USA). […] Excess biotin was removed by column chromatography (PD MiniTrap^TM G-25 Desalting column, Lot#17030445), and the residue was diluted to 400 μL with PBS and immobilized onto Super streptavidin biosensor chips (ForteBio, Cat#18–5057). A duplicate set of sensors was incubated in an assay buffer (PBS containing 0.02% Tween20 and 0.1% BSA) with 5% DMSO but without protein for use as a background binding control. Both sets of sensors were blocked with a solution of 10 μg/mL biocytin for 1 min at rt. Drug concentrations ranged from 0.74 to 180 nmol/L (6 doses). Data was analyzed by the FortéBio Data Analysis 8.1 software (FortéBio, Fremont, CA, USA) using a double reference subtraction (sample and sensor references).
(In BLI a coated tip is dipped into the sample, and binding shifts an interference pattern.)

The target in series [2] is T1, TRKC WT (Homo sapiens, UniProt Q16288).
T1 construct: residues 526–839 from the kinase domain; made in house
The experiment in a line: Bio-layer interferometry (BLI) Octet binding assay. On the procedure:
as §1

In series [3] the test system is parental BaF3 cells (phospho-ERK). The experiment in a line: Western blot in parental BaF3 cells (Figure S1). The series is classed as cell-based, Murine. The following applies: parental BaF3 cells driven by IL-3 (Figure S1). On the procedure: (§2) Cells were treated with various concentrations of each tested compound for a designated time. Then cells were lysed using 1 × SDS sample lysis buffer (CST recommended) with protease and phosphatase inhibitors. […] The films were blocked with 5% fat-free milk in TBS solution containing 0.5% Tween-20 for 4 h at room temperature, then incubated with the corresponding primary antibody (1:1000–1:200) overnight at 4 °C. After washing with TBST, HRP-conjugated secondary antibody was incubated for 2 h. The protein signals were visualized by ECL Western Blotting Detection Kit (Thermo Scientific, Waltham, MA, USA), and detected with Amersham Imager 600 system (GE, Boston, MA, USA).
In general terms: Immunoblotting shows a protein as a band on a membrane.

The next series concerns BaF3 QKI-TRKB. The experiment in a line: BaF3 cell proliferation, CCK-8 assay. The note with it: Mus musculus, BaF3, 72 h, read-out: IC50 (nM ± SD) WT QKI-TRKB.
Another series relates to BaF3 EML4-TRKC. Description: BaF3 cell proliferation, CCK-8 assay. The note with it: Mus musculus, BaF3, 72 h, read-out: IC50 (nM ± SD) WT EML4-TRKC.
Another series concerns the target TRKA-G667C (Homo sapiens, UniProt P04629, G667C). The experiment in a line: FRET-based Z'-Lyte kinase assay. The series is classed as biochemical. Here is the method:
(§3) TRKA/B/C and the Z′-Lyte Kinase Assay Kit were purchased from Invitrogen. Assays were performed according to the manufacturer’s instructions. […] The solutions of the compounds were diluted from 10^−10 M to […] in DMSO and a 400 μM solution of the compound was prepared with 4 μL of the solution of the compound dissolved in 96 μL water. […] For each assay, 10 μL of a kinase solution, including 2.5 μL of the compound solution, 5 μL of the kinase/peptide mixture, and 2.5 μL of the ATP solution was prepared. The plate wells were mixed thoroughly and incubated for 1 h at room temperature (rt). Then 5 μL of the development solution was added to each well and the plate was incubated for 1 h at rt; the […] were cleaved in this time. Finally, 5 μL of stop reagent was added to stop the reaction. For the control setting, 5 μL of the phosphopeptide solution instead of the kinase/peptide mixture was used as a 100% phosphorylation control. […] The plate was measured on an EnVision Multilabel Reader (Perkin-Elmer). Curve fitting and data presentation was performed using GraphPad Prism, version 5.0. Every experiment was repeated at least 2 times.

For the next series, the target named is T2, TRKC (Homo sapiens, UniProt Q16288).
T2 construct: purchased Invitrogen
The experiment in a line: FRET-based Z'-Lyte kinase assay. The series is classed as biochemical. The following applies: mean ± SD, read-out: IC50 TRKC kinase inhibition. On the procedure:
as §3

The target of the next series is T3, TRKB (Homo sapiens, UniProt Q16620).
T3 construct: purchased Invitrogen
The experiment in a line: FRET-based Z'-Lyte kinase assay. The series is classed as biochemical. The following applies: mean ± SD, read-out: IC50 TRKB kinase inhibition. Here is the method:
as §3

For a further series, the system named is BaF3 ETV6-TRKB-G639R. Description: BaF3 cell proliferation, CCK-8 assay. The note with it: Mus musculus, BaF3, 72 h, read-out: IC50 (nM ± SD) Solvent Front ETV6-TRKB-G639R.
Series [4] in a line: Pharmacokinetics in rats (Table S4). The series is classed as in vivo.
Series [5] relates to BaF3 cells with solvent front mutations (TRKA^G595R, TRKB^G639R, TRKC^G623R). Description: BaF3 cell proliferation, summary over solvent front lines. The note with it: Mus musculus, BaF3, read-out: IC50 range in cells with solvent front mutations.
Method: (§4) Murine BaF3 cells were purchased from JRCB cell bank. The BaF3 cell lines, which stably express natively-fused TRKA/B/C or various point mutants, were self-established by following previously described procedures. Briefly, NTRK genes were totally synthesized and cloned into pCDNA3.1(+) vectors (Invitrogen, Carlsbad, CA, USA). […] Stable strains were established by selection of cells 2 weeks post-transfection with 800 μg/mL G418 (Merck, Whitehouse Station, NJ) and further selection after the withdrawal of interleukin-3 (IL-3, R&D) for 2 weeks. All of BaF3 stable cell lines were verified by DNA sequencing, protein expression and anti-proliferation activity against positive drugs. […] All cells were grown at 37 °C in a humidified 5% CO2 atmosphere.
(§5) Cells were placed in 96-well plates (5000~8000/well) in complete medium. […] IC50 values were calculated by concentration-response curve fitting using GraphPad Prism 5.0 software. Each IC50 value is expressed as mean ± SD.
A further series deals with BaF3 ETV6-TRKC. Description: BaF3 cell proliferation, CCK-8 assay. The note with it: Mus musculus, BaF3, 72 h, read-out: IC50 (nM ± SD) WT ETV6-TRKC.
The test system of the next series is BaF3 MPRIP-TRKA. The experiment in a line: BaF3 cell proliferation, CCK-8 assay. The following applies: Mus musculus, BaF3, 72 h, read-out: IC50 (nM ± SD) WT MPRIP-TRKA.
The test system of series [6] is TRKs-xDGF mutants TRKA-G667C, TRKB-G709C and TRKC-G696C in stable BaF3 models. Description: Western blot of xDFG mutant TRK signal pathway (Figure S2). The series is classed as cell-based, Murine. The following applies: 6 h. On the procedure: as §2

Method for BaF3 CD74-TRKA-G595R: as §4, §5
Method for BaF3 EML4-TRKC: as §4, §5
Method for BaF3 ETV6-TRKB-G639R: as §4, §5
Method for BaF3 ETV6-TRKC-G623R: as §4, §5
Method for BaF3 MPRIP-TRKA: as §4, §5
Method for BaF3 QKI-TRKB: as §4, §5
Method for Parental BaF3 (+IL3): as §4, §5

Turning to `Cc1c(C#Cc2cnc3cnc(-c4ccc(N)cc4)cn23)cccc1C(=O)Nc1cc(CN2CCN(C)CC2)cc(C(C)C)c1` [JND4135, 3-((6-(4-aminophenyl)imidazo[1,2-a]pyrazin-3-yl)ethynyl)-N-(3-isopropyl-5-((4-methylpiperazin-1-yl)methyl)phenyl)-2-methylbenzamide], the IC50 (in general, the midpoint of a concentration-inhibition curve) with BaF3 ETV6-TRKC-G623R was 9.4 ± 2.6 nM; in the series with BaF3 CD74-TRKA, 10.4 ± 3.2 nM; in the series on BaF3 CD74-TRKA-G595R it was 33.7 ± 7.1 nM; with Parental BaF3 (+IL3), 1950 ± 25.1 nM; with BaF3 QKI-TRKB it was 2.4 ± 0.6 nM; with BaF3 EML4-TRKC it was 13.2 ± 2.6 nM. The half-maximal inhibitory concentration (IC50) was 0.83 ± 0.06 nM at TRKA-G667C (Z'-Lyte, mean ± SD, read-out: IC50 TRKA-G667C kinase inhibition); 3.01 ± 0.43 nM on TRKC; 3.19 ± 1.76 nM on TRKB; 10.1 ± 3.9 nM in the series with BaF3 ETV6-TRKB-G639R; 9.4 to 33.7 nM in series [5]; 10.4 ± 4 nM in the series on BaF3 ETV6-TRKC. Besides, the IC50 in the series with BaF3 MPRIP-TRKA was determined as 7.1 ± 2.3 nM. Further, the “fold slower dissociation rate than that of control drugs” value in the series on TRKC WT [1] is 3.81–27.85 fold. Further, the koff at TRKC WT [2] (Koff, read-out: dissociation rate with TRKC-WT) came to 0.000278 s⁻¹. For the same compound, the Kd (as a rule, the constant that tells how readily two partners part at equilibrium) at TRKC WT [2] (read-out: Kd, binding affinity to TRKC-WT) came to 2.57 nM. Besides, the “effect on phospho-ERK levels” value in [3] was “increased the phospho-ERK levels”. Moreover, the “fold stronger kinase inhibition of TRKA-G667C than TRKA-WT” value at TRKA-G667C was 3.3 fold. In [4], the “absorption via oral administration” value is reported as “almost no absorption”. In addition, the “dose that effectively inhibits the activation of TRKs-xDGF mutants” value in series [6] amounted to 8.0 nM.

The record behind these values is paper PMC9570838, “JND4135, a New Type II TRK Inhibitor, Overcomes TRK xDFG and Other Mutation Resistance In Vitro and In Vivo” (Molecules, 2022).
